Source: patent US12215123B2, “Cordycepin-based derivatized compound with anti-tumor effect” (NANJING TECH UNIVERSITY, priority 2022, dated 2025)

Experiments:
[1] = test system: MC-38 colon cancer cells; test: Mouse transplanted colon cancer model; format: in vivo, C57BL/6j nude mice; conditions: MC-38 transplanted mice, 28 days, 500 ug/time/animal intragastric (compound daily, antibody every 4 days); control 1,300 mm^3
Procedure: (§1) The feeding of the mouse model in the drug evaluation follows that: mice are fed and treated in a laminar flow cabinet, with 5 nude mice in each cage, drinking water and feedstuffs are added once every 3 days, and paddings are replaced once a week; a number of mice kept in each cage is no more than 5, the mice in separate cages are kept in groups as far as possible, and the mice should not be kept in a single cage; the animal management must conform to the relevant national standards on animal feeding management, and the behavioral needs of animals should be concerned at the same time to avoid unnecessary stress; the normal physiological and behavioral needs of animals, such as defecation, urination, constant body temperature maintenance, normal activities, posture adjustment and reproduction are met; good ventilation and dry animals are kept; the animals can access to drinking water and food at will, and supplementation, replacement and cleaning operations are easily carried out; a solid and safe environment is provided to avoid accidents of animals, such as escaping or limb trapping in a gap; the animals are avoided from being damaged by sharp edges or protrusions; and the animals are not disturbed during observation.
A mouse transplanted colon cancer model was established and a drug was evaluated. […]

[2] = test system: Hep-1-6 liver cancer cells; test: Mouse transplanted liver cancer model; format: in vivo, C57BL/6j nude mice; conditions: Hep-1-6 transplanted mice, intragastric 500 ug/time/animal every other day, 14 days; blank 900 mm^3
Procedure: as §1
A mouse transplanted liver cancer model was established and a drug was evaluated. […]

| SMILES | tumor size [1] | tumor volume [2] |
| --- | --- | --- |
| Nc1ncnc2c1ncn2[C@@H]1O[C@H](CO)C[C@H]1O [Cordycepin, 3′-deoxyadenosine] | 730 mm^3 | – |
| CC(C)OC(=O)C(C)NP(=O)(COC[C@@H]1CC(O)[C@H](n2cnc3c(NC(=O)c4ccncc4)ncnc32)O1)Oc1ccccc1 (some centres unmarked) [Compound 24, isopropyl((((4-hydroxy-5-(6-(isonicotinamide)-9H-purin-9-yl)tetrahydrofuran-2-yl)methoxy)methyl)(phenoxy)phosphoryl)alanine ester] | – | < 100 mm^3 |
